# Test results reported in patent publication US7232570B2, “ERAAP modulators regulate immune responses” (Regents of the University of California, priority 2002, dated 2007).
# What was measured:
# [1] = biological target: human source ERAAP (Homo sapiens, UniProt Q9NZ08); experiment: ERAAP modulation/selectivity screen against a panel of other aminopeptidases; format: biochemical; conditions: preferential inhibition of ERAAP compared with a panel of other aminopeptidases
# From the text: The targeted ERAAP is a well-known, naturally-occurring aminopeptidase, which has been biochemically characterized and cloned in a wide variety of animal species, including mice, rats and humans. […] Note that the same enzyme has been called “A-LAP” (adipocyte-derived leucine aminopeptidase) by others (e.g. Hattori et al., supra).
# Protocols for delivering the inhibitor and effective dosages are known in the art and/or readily determined empirically by those skilled in the art guided by the selected inhibitor and the present disclosure. […] For example, the well-characterized structural interaction between aminothiol inhibitors of aminopeptidases (e.g. Bienvenue et al., J Inorgan Biochem 2000, 78, 43-54) were exploited to select ERAAP selective aminothiol-type inhibitors. In this manner, we screened panels of compounds and identified a number of ERAAP-selective aminothiol inhibitors, including leucine thiol and lysinethiol. ERAAP modulation assays may be performed by any convenient protocol, including those described by us in Serwold et al. (2001, supra), those of Hattori et al. (2000, supra), etc. […] Alternative aminopeptidase inhibitor pharmacophores for ERAAP selectivity and method compatibility screens include L-bis (1-thio-2-amino-4-methylpentane) dihydrochloride (TAMP) and L-bis (1-thio-2-amino-3-phenylpropane) dihydrochloride (TAPP) (see, e.g. Weiss et al., Res Comm Chem Path Pharmacol 1988, 62, 113-2) and alpha-thiolbestatins (e.g. Ocain et al., J Med Chem 1988 November;31(11):2193-9).
# [2] = tested on: Sprague-Dawley rats; experiment: Phenotypic and functional indicia of immunosuppression in treated rats; format: in vivo
# [3] = tested on: antigen presenting cells (APC); experiment: APC assays with peripheral blood leukocytes from aminothiol-treated rats; format: in vivo, Sprague-Dawley rats; conditions: peripheral blood leukocytes of treated rats as APC for T cells specific for K^b or D^b presented peptides
# [4] = biological target: T1, predominant aminopeptidase activity present in the ER (ERAAP) (Mus musculus, UniProt Q9EQH2); experiment: Aminopeptidase activity of solubilized microsomes, colorimetric substrate leucine-p-nitroanilide; format: biochemical, mice; conditions: ion exchange chromatography of solubilized microsomes from mouse liver and spleen
# T1 construct: Microsomes from liver and spleens of mice were solubilized in detergent; from tissue; host or cells: mouse liver and spleen microsomes
# T1 sequence (Q9EQH2 1-930): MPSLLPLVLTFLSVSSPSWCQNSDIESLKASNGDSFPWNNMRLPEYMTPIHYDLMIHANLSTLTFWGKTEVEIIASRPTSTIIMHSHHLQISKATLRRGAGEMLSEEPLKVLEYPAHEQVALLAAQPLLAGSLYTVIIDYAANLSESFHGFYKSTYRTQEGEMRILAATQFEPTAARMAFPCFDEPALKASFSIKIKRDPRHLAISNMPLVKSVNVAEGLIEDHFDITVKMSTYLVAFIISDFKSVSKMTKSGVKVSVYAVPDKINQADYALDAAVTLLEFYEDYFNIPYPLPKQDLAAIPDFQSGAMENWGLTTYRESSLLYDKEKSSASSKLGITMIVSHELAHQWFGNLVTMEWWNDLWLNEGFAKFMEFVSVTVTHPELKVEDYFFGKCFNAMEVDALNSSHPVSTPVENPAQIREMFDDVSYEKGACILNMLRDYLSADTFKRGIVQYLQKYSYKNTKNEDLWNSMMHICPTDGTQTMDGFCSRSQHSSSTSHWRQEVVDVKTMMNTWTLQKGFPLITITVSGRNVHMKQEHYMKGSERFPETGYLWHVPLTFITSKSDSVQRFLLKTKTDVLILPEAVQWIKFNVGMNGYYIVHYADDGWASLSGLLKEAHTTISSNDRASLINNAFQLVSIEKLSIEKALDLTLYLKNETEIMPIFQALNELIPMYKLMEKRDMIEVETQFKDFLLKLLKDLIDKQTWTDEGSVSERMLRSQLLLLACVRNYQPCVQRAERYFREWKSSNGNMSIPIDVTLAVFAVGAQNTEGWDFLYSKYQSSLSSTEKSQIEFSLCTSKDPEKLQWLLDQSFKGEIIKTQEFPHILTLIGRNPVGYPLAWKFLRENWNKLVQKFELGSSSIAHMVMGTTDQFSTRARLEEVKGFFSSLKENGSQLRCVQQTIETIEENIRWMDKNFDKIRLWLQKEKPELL
# From the text: To identify this protease, we biochemically purified the predominant aminopeptidase activity present in the ER. Microsomes from liver and spleens of mice were solubilized in detergent and the aminopeptidase activity was monitored by the colorimetric substrate leucine-p-nitroanilide (9). […] This activity was precipitated from solubilized microsomes by ammonium sulfate, resolublized and fractionated by size exclusion, ion exchange and hydrophobic interaction chromatographies. The highly enriched fractions from the final purification step contained a major band of approximately 100 kD on a coommassie blue stained SDS-PAGE gel. This band was subjected to in-gel trypsin digestion and the peptides were analyzed by MALDI-TOF mass spectrometry; the resulting tryptic peptide fingerprint was used to search the NCBI database (10). In two independent experiments 25 masses matched the predicted output of trypsin digested murine adipocyte-derived leucine aminopeptidase (Genbank Accession # AF227511). This assignment was further confirmed with the amino acid sequences of four peptides determined by high energy CID MS-MS analysis (11). This 930 amino acid murine aminopeptidase and its human and rat homologues are known by a variety of different names (12). […]
# [5] = tested on: ERAAP; experiment: ERAAP expression in cultured fibroblasts treated with interferon gamma; format: cell-based
# Procedure: MHC I molecules are expressed by virtually all tissues. To determine whether ERAAP expression correlated with that of MHC I, seven different mouse tissues were analyzed by western blot for expression of ERAAP, MHC I and the housekeeping proteins actin and gp96 as controls. ERAAP was detected in all tissues analyzed but its expression was highest in the liver, lung, spleen and thymus, the same tissues which also expressed the highest levels of MHC I molecules. Furthermore, the expression of ERAAP was increased approximately 10-fold by treatment of cultured fibroblasts with the inflammatory cytokine interferon gamma, which also upregulates many other key components in the antigen processing pathway (17).
# human source ERAAP, sequence (Q9NZ08 whole entry): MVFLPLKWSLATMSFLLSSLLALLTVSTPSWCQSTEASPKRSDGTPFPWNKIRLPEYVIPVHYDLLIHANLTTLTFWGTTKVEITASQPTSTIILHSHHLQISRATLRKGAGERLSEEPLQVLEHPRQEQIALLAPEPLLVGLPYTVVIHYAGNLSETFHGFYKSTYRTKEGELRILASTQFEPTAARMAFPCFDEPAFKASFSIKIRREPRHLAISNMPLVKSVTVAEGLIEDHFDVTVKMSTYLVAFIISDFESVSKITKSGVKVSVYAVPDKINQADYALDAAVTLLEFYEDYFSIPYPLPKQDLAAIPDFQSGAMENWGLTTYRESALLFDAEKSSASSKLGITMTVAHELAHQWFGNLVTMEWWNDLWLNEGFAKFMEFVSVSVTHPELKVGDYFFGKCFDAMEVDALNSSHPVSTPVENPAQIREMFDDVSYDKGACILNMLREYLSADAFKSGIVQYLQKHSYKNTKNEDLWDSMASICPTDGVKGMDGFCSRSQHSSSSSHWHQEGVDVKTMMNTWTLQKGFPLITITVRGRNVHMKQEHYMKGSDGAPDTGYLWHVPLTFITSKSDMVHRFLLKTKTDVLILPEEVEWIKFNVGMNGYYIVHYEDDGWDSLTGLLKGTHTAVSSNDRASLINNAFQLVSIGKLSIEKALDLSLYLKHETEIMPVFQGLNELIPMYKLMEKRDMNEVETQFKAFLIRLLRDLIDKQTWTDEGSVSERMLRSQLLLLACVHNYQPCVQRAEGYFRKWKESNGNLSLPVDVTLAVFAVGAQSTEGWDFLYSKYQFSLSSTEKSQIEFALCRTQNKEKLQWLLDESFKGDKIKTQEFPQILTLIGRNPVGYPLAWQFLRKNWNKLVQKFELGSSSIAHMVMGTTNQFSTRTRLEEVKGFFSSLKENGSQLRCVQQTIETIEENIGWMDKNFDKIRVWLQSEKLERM
molecule,measurement,setting,value
CC[C@H](C)[C@H](N)CS [isoleucinethiol],ERAAP selectivity,[1],ERAAP-selective
CC(C)C[C@H](N)CS [leucinethiol],spleen and thymus volume,[2],reduced
same,graft-host response,[2]; e.g. skin graft assays,reduced
same,ERAAP selectivity,[1],ERAAP-selective
same,APC function,[3],pronounced inhibition
same,predominant aminopeptidase activity peak,[4],blocked
NCCCC[C@H](N)CS [lysinethiol],ERAAP selectivity,[1],ERAAP-selective
interferon gamma: inflammatory cytokine,increase of ERAAP expression,[5],approximately 10 fold
